Among the data in ChEMBL document CHEMBL3045600, “Synthesis and Fungicidal Activities of Phenoxyphenyl Alkoxyiminoacetamide Derivatives” (J Pestic Sci, 1998) are Activity values, retold here.

Holding throughout (assay type): functional
Assay [1] relates to Pyricularia oryzae. The experiment in a line: Fungicidal activity against Magnaporthe oryzae assessed as rice blast disease control at 10 ppm submerged application measured after 7 days.
Assay [2] concerns Botrytis cinerea. Kind of assay: Fungicidal activity against Botryotinia fuckeliana assessed as cucumber gray mold disease control at 31.3 ppm foliar application 24 hr after inoculation at 22 +/- 2 degC measured after 3 days by curative manner.
In assay [3] the test system is Podosphaera fuliginea. Kind of assay: Fungicidal activity against Podosphaera fuliginea assessed as cucumber powdery mildew control under greenhouse at 125 ppm foliar application 24 hr before inoculation on upper surface of leaf at 23 +/- 2 degC by preventive manner.
Assay [4] deals with Thanatephorus cucumeris. The experiment in a line: Fungicidal activity against Thanatephorus cucumeris assessed as rice sheath blight disease control at 31.3 ppm foliar application for 24 hr before inoculation at 26 +- 2 measured after 5 days by preventive manner.
Assay [5] concerns Pseudoperonospora cubensis. The experiment in a line: Fungicidal activity against Pseudoperonospora cubensis assessed as cucumber downy mildew disease control at 31.3 ppm foliar application 24 hr before inoculation on upper surface of leaf by preventive manner.
Assay [6] relates to Thanatephorus cucumeris. The experiment in a line: Fungicidal activity against Thanatephorus cucumeris assessed as rice sheath blight disease control at 125 ppm foliar application for 24 hr before inoculation at 26 +- 2 measured after 5 days by preventive manner.
Assay [7] relates to Podosphaera fuliginea. The experiment in a line: Fungicidal activity against Podosphaera fuliginea assessed as cucumber powdery mildew control under greenhouse at 31.3 ppm foliar application 24 hr before inoculation on upper surface of leaf at 23 +/- 2 degC by preventive manner.
The test system of assay [8] is Pyricularia oryzae. Kind of assay: Fungicidal activity against Magnaporthe oryzae assessed as rice blast disease control at 0.63 ppm submerged application measured after 7 days.
In assay [9] the test system is Pseudoperonospora cubensis. Kind of assay: Fungicidal activity against Pseudoperonospora cubensis assessed as cucumber downy mildew disease control at 125 ppm foliar application 24 hr before inoculation on upper surface of leaf by preventive manner.
Assay [10] relates to Thanatephorus cucumeris. The experiment in a line: Fungicidal activity against Thanatephorus cucumeris assessed as rice sheath blight disease control at 7.8 ppm foliar application for 24 hr before inoculation at 26 +- 2 measured after 5 days by preventive manner.
Assay [11] deals with Thanatephorus cucumeris. Kind of assay: Fungicidal activity against Thanatephorus cucumeris assessed as rice sheath blight disease control at 2 ppm foliar application for 24 hr before inoculation at 26 +- 2 measured after 5 days by preventive manner.
Assay [12] has as its system Pseudoperonospora cubensis. Kind of assay: Fungicidal activity against Pseudoperonospora cubensis assessed as cucumber downy mildew disease control at 2 ppm foliar application 24 hr before inoculation on upper surface of leaf by preventive manner.
The test system of assay [13] is Botrytis cinerea. The experiment in a line: Fungicidal activity against Botryotinia fuckeliana assessed as cucumber gray mold disease control at 125 ppm foliar application 24 hr after inoculation at 22 +/- 2 degC measured after 3 days by curative manner.
Assay [14] deals with Podosphaera fuliginea. The experiment in a line: Fungicidal activity against Podosphaera fuliginea assessed as cucumber powdery mildew control under greenhouse at 2 ppm foliar application 24 hr after inoculation on upper surface of leaf at 23 +/- 2 degC by curative manner.
Assay [15] has as its system Botrytis cinerea. Kind of assay: Fungicidal activity against Botryotinia fuckeliana assessed as cucumber gray mold disease control at 7.8 ppm foliar application 24 hr after inoculation at 22 +/- 2 degC measured after 3 days by curative manner.
Assay [16] deals with Podosphaera fuliginea. Kind of assay: Fungicidal activity against Podosphaera fuliginea assessed as cucumber powdery mildew control under greenhouse at 7.8 ppm foliar application 24 hr before inoculation on upper surface of leaf at 23 +/- 2 degC by preventive manner.
Assay [17] concerns Botrytis cinerea. The experiment in a line: Fungicidal activity against Botryotinia fuckeliana assessed as cucumber gray mold disease control at 2 ppm foliar application 24 hr after inoculation at 22 +/- 2 degC measured after 3 days by curative manner.
The subject of assay [18] is Pyricularia oryzae. Kind of assay: Fungicidal activity against Magnaporthe oryzae assessed as rice blast disease control at 2.5 ppm submerged application measured after 7 days.
The subject of assay [19] is Pseudoperonospora cubensis. The experiment in a line: Fungicidal activity against Pseudoperonospora cubensis assessed as cucumber downy mildew disease control at 7.8 ppm foliar application 24 hr before inoculation on upper surface of leaf by preventive manner.
Assay [20] relates to Podosphaera fuliginea. The experiment in a line: Fungicidal activity against Podosphaera fuliginea assessed as cucumber powdery mildew control under greenhouse at 7.8 ppm foliar application 24 hr after inoculation on upper surface of leaf at 23 +/- 2 degC by curative manner.
In assay [21] the test system is Podosphaera fuliginea. Kind of assay: Fungicidal activity against Podosphaera fuliginea assessed as cucumber powdery mildew control under greenhouse at 2 ppm foliar application 24 hr before inoculation on upper surface of leaf at 23 +/- 2 degC by preventive manner.
For assay [22], the system named is Podosphaera fuliginea. The experiment in a line: Fungicidal activity against Podosphaera fuliginea assessed as cucumber powdery mildew control under greenhouse at 125 ppm foliar application 24 hr after inoculation on upper surface of leaf at 23 +/- 2 degC by curative manner.
Assay [23] deals with Pyricularia oryzae. Kind of assay: Fungicidal activity against Magnaporthe oryzae assessed as rice blast disease control at 0.16 ppm submerged application measured after 7 days.
The subject of assay [24] is Podosphaera fuliginea. The experiment in a line: Fungicidal activity against Podosphaera fuliginea assessed as cucumber powdery mildew control under greenhouse at 31.3 ppm foliar application 24 hr after inoculation on upper surface of leaf at 23 +/- 2 degC by curative manner.
The test system of assay [25] is Pseudoperonospora cubensis. The experiment in a line: Fungicidal activity against Pseudoperonospora cubensis assessed as cucumber downy mildew disease control at 7.8 ppm foliar application 24 hr after inoculation on upper surface of leaf by curative manner.
The subject of assay [26] is Pseudoperonospora cubensis. Kind of assay: Fungicidal activity against Pseudoperonospora cubensis assessed as cucumber downy mildew disease control at 2 ppm foliar application 24 hr after inoculation on upper surface of leaf by curative manner.
The test system of assay [27] is Pseudoperonospora cubensis. Kind of assay: Fungicidal activity against Pseudoperonospora cubensis assessed as cucumber downy mildew disease control at 31.3 ppm foliar application 24 hr after inoculation on upper surface of leaf by curative manner.
Assay [28] has as its system Pseudoperonospora cubensis. Kind of assay: Fungicidal activity against Pseudoperonospora cubensis assessed as cucumber downy mildew disease control at 125 ppm foliar application 24 hr after inoculation on upper surface of leaf by curative manner.

Structures are written as SMILES.

For the molecule `CNC(=O)/C(=N/OC)c1ccccc1Oc1ccccc1C`, the Activity in the assay with Pyricularia oryzae [1] is listed as 50%; with Botrytis cinerea [2], 50%; in the assay on Podosphaera fuliginea [3] it was 70%; in the assay on Thanatephorus cucumeris [4], less than 70%; in [5], less than 70%; in the assay with Thanatephorus cucumeris [6] it was less than 70%. In addition, the Activity was 70% in the assay with Podosphaera fuliginea [7]; 50% with Pyricularia oryzae [8]; less than 70% in [9]; less than 70% with Thanatephorus cucumeris [10]; less than 70% in the assay on Thanatephorus cucumeris [11]; less than 70% in assay [12]. Besides, the Activity in the assay with Botrytis cinerea [13] is given as 50%; in the assay on Podosphaera fuliginea [14], 50%; in the assay on Botrytis cinerea [15] it was 50%; with Podosphaera fuliginea [16], 70%; with Botrytis cinerea [17] it was 50%; in the assay with Pyricularia oryzae [18] it was 50%. The Activity is on record as less than 70% in assay [19]; 50% in the assay with Podosphaera fuliginea [20]; 70% in the assay on Podosphaera fuliginea [21]; 50% with Podosphaera fuliginea [22]; 50% with Pyricularia oryzae [23]; 50% in the assay with Podosphaera fuliginea [24].
For `CNC(=O)/C(=N/OC)c1ccccc1Oc1ccc(C)cc1`, the Activity in the assay with Pyricularia oryzae [1] was 50%; in the assay with Botrytis cinerea [2] it was 50%; in the assay with Podosphaera fuliginea [3], 70%; in the assay on Thanatephorus cucumeris [4], 70%; in [5], less than 70%; with Thanatephorus cucumeris [6], 70%. Moreover, the Activity in the assay with Podosphaera fuliginea [7] was 70%; with Pyricularia oryzae [8], 50%; in [9] it was less than 70%; with Thanatephorus cucumeris [10], 70%; in the assay on Thanatephorus cucumeris [11] it was 70%; in assay [12] it was less than 70%. Further, the Activity in the assay with Botrytis cinerea [13] was 50%; in the assay on Podosphaera fuliginea [14] it was 50%; in the assay with Botrytis cinerea [15], 50%; in the assay with Podosphaera fuliginea [16] it was 70%; in the assay with Botrytis cinerea [17], 50%; with Pyricularia oryzae [18], 50%. The Activity is less than 70% in assay [19]; 50% in the assay on Podosphaera fuliginea [20]; 70% in the assay on Podosphaera fuliginea [21]; 50% in the assay with Podosphaera fuliginea [22]; 50% with Pyricularia oryzae [23]; 50% with Podosphaera fuliginea [24].
`CNC(=O)/C(=N/OC)c1ccccc1Oc1ccc(C(C)C)cc1`: the Activity with Pyricularia oryzae [1] is given as 50%; in the assay with Botrytis cinerea [2], 50%; with Podosphaera fuliginea [3], 70%; with Thanatephorus cucumeris [4], 70%; in assay [5] it was 70%; with Thanatephorus cucumeris [6] it was 70%. In addition, the Activity in the assay with Podosphaera fuliginea [7] came to 70%; in the assay with Pyricularia oryzae [8], 50%; in assay [9] it was 70%; with Thanatephorus cucumeris [10], 70%; in the assay with Thanatephorus cucumeris [11] it was 70%; in assay [12], 70%. Moreover, the Activity was found to be 50% in the assay with Botrytis cinerea [13]; 50% in the assay with Podosphaera fuliginea [14]; 50% in the assay on Botrytis cinerea [15]; 70% in the assay on Podosphaera fuliginea [16]; 50% in the assay with Botrytis cinerea [17]; 50% with Pyricularia oryzae [18]. In addition, the Activity in assay [19] is reported as 70%; with Podosphaera fuliginea [20] it was 50%; with Podosphaera fuliginea [21], 70%; in the assay on Podosphaera fuliginea [22] it was 50%; with Pyricularia oryzae [23], 50%; in the assay on Podosphaera fuliginea [24], 50%.
For `CNC(=O)/C(=N/OC)c1ccccc1Oc1ccc([Si](C)(C)C)cc1`, the Activity in the assay with Pyricularia oryzae [1] is less than 50%; in the assay with Botrytis cinerea [2], less than 50%; in the assay on Podosphaera fuliginea [3], 70%; with Thanatephorus cucumeris [4] it was less than 70%; in [5], less than 70%; in the assay with Thanatephorus cucumeris [6], less than 70%. In addition, the Activity is given as 70% in the assay on Podosphaera fuliginea [7]; less than 50% in the assay on Pyricularia oryzae [8]; less than 70% in assay [9]; less than 70% with Thanatephorus cucumeris [10]; less than 70% with Thanatephorus cucumeris [11]; less than 70% in assay [12]. The Activity with Botrytis cinerea [13] is less than 50%; in the assay on Podosphaera fuliginea [14], 50%; with Botrytis cinerea [15], less than 50%; with Podosphaera fuliginea [16] it was 70%; in the assay with Botrytis cinerea [17] it was less than 50%; with Pyricularia oryzae [18], less than 50%. The Activity in assay [19] is on record as less than 70%; with Podosphaera fuliginea [20], 50%; in the assay on Podosphaera fuliginea [21], 70%; with Podosphaera fuliginea [22] it was 50%; in the assay on Pyricularia oryzae [23] it was less than 50%; with Podosphaera fuliginea [24], 50%.
`CNC(=O)/C(=N/OC)c1ccccc1Oc1ccc([N+](=O)[O-])cc1`: the Activity in the assay with Botrytis cinerea [2] is on record as 50%; in the assay on Podosphaera fuliginea [3] it was 70%; in the assay on Thanatephorus cucumeris [4] it was less than 70%; in assay [5], less than 70%; with Thanatephorus cucumeris [6], less than 70%; in the assay on Podosphaera fuliginea [7] it was 70%. Moreover, the Activity in assay [25] was less than 50%; in [9], less than 70%; in assay [26], less than 50%; in the assay on Thanatephorus cucumeris [10], less than 70%; in the assay on Thanatephorus cucumeris [11], less than 70%; in assay [27], less than 50%. In addition, the Activity in assay [12] is given as less than 70%; in the assay with Botrytis cinerea [13], 50%; with Podosphaera fuliginea [14] it was 50%; in the assay on Botrytis cinerea [15] it was 50%; in the assay with Podosphaera fuliginea [16] it was 70%; in assay [28], less than 50%. The Activity is 50% in the assay on Botrytis cinerea [17]; less than 70% in assay [19]; 50% with Podosphaera fuliginea [20]; 70% with Podosphaera fuliginea [21]; 50% with Podosphaera fuliginea [22]; 50% with Podosphaera fuliginea [24].
As for `CNC(=O)/C(=N/OC)c1ccccc1Oc1cccc(OCc2ccccc2)c1`, the Activity in the assay on Pyricularia oryzae [1] is less than 50%; in the assay with Botrytis cinerea [2], 50%; with Podosphaera fuliginea [3] it was 70%; with Thanatephorus cucumeris [4], 70%; in [5], 70%; in the assay on Thanatephorus cucumeris [6], 70%. Further, the Activity in the assay on Podosphaera fuliginea [7] is listed as 70%; in the assay with Pyricularia oryzae [8], less than 50%; in assay [9] it was 70%; with Thanatephorus cucumeris [10], 70%; in the assay on Thanatephorus cucumeris [11] it was 70%; in assay [12] it was 70%. The Activity in the assay with Botrytis cinerea [13] is given as 50%; with Podosphaera fuliginea [14] it was 50%; in the assay with Botrytis cinerea [15], 50%; with Podosphaera fuliginea [16], 70%; in the assay on Botrytis cinerea [17], 50%; in the assay on Pyricularia oryzae [18], less than 50%. Besides, the Activity in [19] is recorded as 70%; in the assay on Podosphaera fuliginea [20], 50%; in the assay on Podosphaera fuliginea [21] it was 70%; in the assay on Podosphaera fuliginea [22] it was 50%; with Pyricularia oryzae [23], less than 50%; with Podosphaera fuliginea [24], 50%.
